The source made the active and inactive calls. No cut-off for these calls is given here.
Tested on: Influenza A virus
Experiment: Antiviral activity against Influenza A/WSN/33 harboring H275Y mutant at 0.3 uM
Type: functional, organism-based

With CC(C)(C)N(CC(=O)O)Nc1nc(-c2c[nH]c3ncc(F)cc23)ncc1F the Activity was “Active”.

Source: ChEMBL document CHEMBL5385878, “Synthesis and structure-activity optimization of 7-azaindoles containing aza-β-amino acids targeting the influenza PB2 subunit” (Eur J Med Chem, 2023)
